Assay results as given in ChEMBL document CHEMBL1154412, “In vitro activity of telavancin against gram-positive clinical isolates recently obtained in Europe” (Antimicrob Agents Chemother, 2007).
Converted amounts (≈) assume the structure as drawn.

Experiments:
Format in all cases: functional
Streptococcus pneumoniae [1] = assay: Antibacterial activity against penicillin-resistant Streptococcus pneumoniae after 20 to 24 hrs by broth microdilution method
Staphylococcus [2] = assay: Antimicrobial activity against methicillin-susceptible coagulase-negative Staphylococcus after 20 to 24 hrs by broth microdilution method
[3] = system: Streptococcus sp. 'group A'; assay: Antimicrobial activity against Streptococcus group A after 20 to 24 hrs by broth microdilution method
[4] = system: Streptococcus sp. 'group B'; assay: Antimicrobial activity against Streptococcus group B after 20 to 24 hrs by broth microdilution method
Streptococcus viridans = assay: Antimicrobial activity against Streptococcus viridans after 20 to 24 hrs by broth microdilution method
Staphylococcus [5] = assay: Antimicrobial activity against methicillin-resistant coagulase-negative Staphylococcus after 20 to 24 hrs by broth microdilution method
Staphylococcus aureus [6] = assay: Antimicrobial activity against methicillin-resistant Staphylococcus aureus after 20 to 24 hrs by broth microdilution method
Streptococcus pneumoniae [7] = assay: Antibacterial activity against penicillin-intermediate Streptococcus pneumoniae after 20 to 24 hrs by broth microdilution method
Staphylococcus aureus [8] = assay: Antimicrobial activity against methicillin-susceptible Staphylococcus aureus after 20 to 24 hrs by broth microdilution method
Streptococcus pneumoniae [9] = assay: Antibacterial activity against penicillin-susceptible Streptococcus pneumoniae after 20 to 24 hrs by broth microdilution method
Enterococcus faecium [10] = assay: Antibacterial activity against vancomycin-resistant Enterococcus faecium after 20 to 24 hrs by broth microdilution method
Enterococcus faecalis [11] = assay: Antimicrobial activity against vancomycin-resistant Enterococcus faecalis after 20 to 24 hrs by broth microdilution method
Enterococcus faecalis [12] = assay: Antimicrobial activity against vancomycin-susceptible Enterococcus faecalis after 20 to 24 hrs by broth microdilution method
Enterococcus faecium [13] = assay: Antibacterial activity against vancomycin-susceptible Enterococcus faecium after 20 to 24 hrs by broth microdilution method

Row | SMILES | MIC50 (Streptococcus pneumoniae [1]) [µg/mL] | MIC50 (Staphylococcus [2]) [µg/mL] | MIC90 (Staphylococcus [2]) [µg/mL] | MIC50 [3] [µg/mL] | MIC90 [3] [µg/mL] | MIC50 [4] [µg/mL] | MIC90 [4] [µg/mL] | MIC50 (Streptococcus viridans) [µg/mL] | MIC90 (Streptococcus viridans) [µg/mL] | MIC50 (Staphylococcus [5]) [µg/mL] | MIC50 (Staphylococcus aureus [6]) [µg/mL] | MIC50 (Streptococcus pneumoniae [7]) [µg/mL] | MIC90 (Streptococcus pneumoniae [7]) [µg/mL] | MIC50 (Staphylococcus aureus [8]) [µg/mL] | MIC90 (Staphylococcus aureus [8]) [µg/mL] | MIC50 (Streptococcus pneumoniae [9]) [µg/mL] | MIC90 (Streptococcus pneumoniae [9]) [µg/mL] | MIC90 (Staphylococcus [5]) [µg/mL] | MIC90 (Staphylococcus aureus [6]) [µg/mL] | MIC90 (Streptococcus pneumoniae [1]) [µg/mL] | further results
1 | CC[C@H]1OC(=O)[C@H](C)[C@@H](O[C@H]2C[C@@](C)(OC)[C@@H](O)[C@H](C)O2)[C@H](C)[C@@H](O[C@@H]2O[C@H](C)C[C@H](N(C)C)[C@H]2O)[C@](C)(O)C[C@@H](C)C(=O)[C@H](C)[C@@H](O)[C@]1(C)O [ERYTHROMYCIN] | > 1 | 0.25 (≈ 0.341 µM) | > 16 | 0.03 (≈ 0.0409 µM) | 0.06 (≈ 0.0818 µM) | 0.03 (≈ 0.0409 µM) | 0.5 (≈ 0.681 µM) | 0.03 (≈ 0.0409 µM) | > 1 | > 16 | > 16 | 0.03 (≈ 0.0409 µM) | > 1 | 0.5 (≈ 0.681 µM) | > 16 | 0.03 (≈ 0.0409 µM) | 0.06 (≈ 0.0818 µM) |  |  |  | 
2 | CNC1C(O)C(OC2C(N)CC(N)C(OC3OC(CN)CCC3N)C2O)OCC1(C)O (stereo not given) [GENTAMICIN C1A] |  | ≤ 0.06 | ≤ 0.06 |  |  |  |  |  |  | 8 (≈ 17.8 µM) | 0.5 (≈ 1.11 µM) |  |  | 0.25 (≈ 0.556 µM) | 1 (≈ 2.22 µM) |  |  | > 16 | > 16 |  | MIC (Staphylococcus [2]): ≤ 0.06 µg/mL
3 | C[C@H]1COc2c(N3CCN(C)CC3)c(F)cc3c(=O)c(C(=O)O)cn1c23.C[C@H]1COc2c(N3CCN(C)CC3)c(F)cc3c(=O)c(C(=O)O)cn1c23.O [LEVOFLOXACIN] | 0.5 |  |  | 0.5 | 0.5 | 0.5 | 1 | 0.5 | 1 |  |  | 0.5 | 1 |  |  | 0.5 | 1 |  |  | 4 | 
4 | CC(=O)NC[C@H]1CN(c2ccc(N3CCOCC3)c(F)c2)C(=O)O1 [LINEZOLID] | 1 (≈ 2.96 µM) | 1 (≈ 2.96 µM) | 2 (≈ 5.93 µM) |  |  | 1 (≈ 2.96 µM) | 1 (≈ 2.96 µM) | 1 (≈ 2.96 µM) | 1 (≈ 2.96 µM) | 2 (≈ 5.93 µM) | 2 (≈ 5.93 µM) | 1 (≈ 2.96 µM) | 1 (≈ 2.96 µM) | 2 (≈ 5.93 µM) | 2 (≈ 5.93 µM) | 1 (≈ 2.96 µM) | 1 (≈ 2.96 µM) | 2 (≈ 5.93 µM) | 2 (≈ 5.93 µM) | 1 (≈ 2.96 µM) | MIC (Staphylococcus [2]): 1 µg/mL (≈ 2.96 µM); MIC50 (Enterococcus faecium [10]): 2 µg/mL (≈ 5.93 µM); MIC90 (Enterococcus faecium [10]): 2 µg/mL (≈ 5.93 µM); MIC50 (Enterococcus faecalis [11]): 2 µg/mL (≈ 5.93 µM); MIC90 (Enterococcus faecalis [11]): 2 µg/mL (≈ 5.93 µM); MIC50 (Enterococcus faecalis [12]): 2 µg/mL (≈ 5.93 µM); MIC90 (Enterococcus faecalis [12]): 2 µg/mL (≈ 5.93 µM); MIC50 (Enterococcus faecium [13]): 2 µg/mL (≈ 5.93 µM); MIC90 (Enterococcus faecium [13]): 2 µg/mL (≈ 5.93 µM)
5 | Cc1onc(-c2ccccc2)c1C(=O)N[C@@H]1C(=O)N2[C@@H]1SC(C)(C)[C@@H]2C(=O)O [OXACILLIN] |  | 0.12 (≈ 0.299 µM) | 0.12 (≈ 0.299 µM) |  |  |  |  |  |  | > 4 | > 4 |  |  | 0.25 (≈ 0.623 µM) | 0.5 (≈ 1.25 µM) |  |  | > 4 | > 4 |  | 
6 | CC[C@H]1OC(=O)[C@H](C)C(=O)[C@H](C)[C@@H](O[C@@H]2O[C@H](C)C[C@H](N(C)C)[C@H]2O)[C@](C)(OC)C[C@@H](C)C(=O)[C@H](C)[C@H]2N(CCCCn3cnc(-c4cccnc4)c3)C(=O)O[C@]12C [TELITHROMYCIN] | 0.015 (≈ 0.0185 µM) | 0.06 (≈ 0.0739 µM) | 0.5 (≈ 0.616 µM) | 0.015 (≈ 0.0185 µM) | 0.015 (≈ 0.0185 µM) | 0.015 (≈ 0.0185 µM) | 0.015 (≈ 0.0185 µM) | 0.008 (≈ 0.00985 µM) | 0.12 (≈ 0.148 µM) | 0.12 (≈ 0.148 µM) | 0.12 (≈ 0.148 µM) | 0.008 (≈ 0.00985 µM) | 0.25 (≈ 0.308 µM) | 0.12 (≈ 0.148 µM) | 0.12 (≈ 0.148 µM) | 0.008 (≈ 0.00985 µM) | 0.008 (≈ 0.00985 µM) | > 8 | > 8 | 0.03 (≈ 0.0369 µM) | 
7 | CN(C)[C@@H]1C(O)=C(C(N)=O)C(=O)[C@@]2(O)C(O)=C3C(=O)c4c(O)cccc4[C@@](C)(O)[C@H]3C[C@@H]12 [TETRACYCLINE] | 0.25 (≈ 0.563 µM) |  |  | 0.12 (≈ 0.27 µM) | > 8 | > 8 | > 8 | 0.5 (≈ 1.13 µM) | > 8 |  |  | 0.25 (≈ 0.563 µM) | > 8 |  |  | 0.12 (≈ 0.27 µM) | 0.25 (≈ 0.563 µM) |  |  |  | MIC [3]: 0.12 µg/mL (≈ 0.27 µM)
